Experimental data reported in PubChem BioAssay (NCI).
Values joined by “and” are separate entries in the source; they are usually repeats but may differ in a detail not shown here. Identical values can stand only once.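 How tested: cells in 96-well plates exposed to compound for 48 hours at five concentrations. GI50: concentration for 50% inhibition of growth. TGI: concentration producing complete growth inhibition.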

Experiments:
Test in all cases: NCI-60 cell line screen, 48 h
[1] = tested on: MDA-MB-468 breast
[2] = tested on: LOX IMVI melanoma
[3] = tested on: IGROV1 ovarian
[4] = tested on: HL-60(TB) leukemia
[5] = tested on: RXF 393 renal
[6] = tested on: T-47D breast
[7] = tested on: UACC-257 melanoma
[8] = tested on: UO-31 renal
[9] = tested on: SF-539 CNS
[10] = tested on: U251 CNS
[11] = tested on: SNB-75 CNS
[12] = tested on: TK-10 renal
[13] = tested on: HCT-116 colon
[14] = tested on: RPMI-8226 leukemia
[15] = tested on: 786-0 renal
[16] = tested on: MDA-MB-435
[17] = tested on: COLO 205 colon
[18] = tested on: SNB-19 CNS
[19] = tested on: OVCAR-8 ovarian
[20] = tested on: ACHN renal
[21] = tested on: SF-268 CNS
[22] = tested on: OVCAR-3 ovarian
[23] = tested on: CCRF-CEM leukemia
[24] = tested on: SW-620 colon
[25] = tested on: SK-MEL-28 melanoma
[26] = tested on: SF-295 CNS
[27] = tested on: MOLT-4 leukemia
[28] = tested on: MDA-MB-231 breast
[29] = tested on: BT-549 breast
[30] = tested on: SK-MEL-5 melanoma
[31] = tested on: HOP-92 NSCLC
[32] = tested on: HT29 colon
[33] = tested on: CAKI-1 renal
[34] = tested on: KM12 colon
[35] = tested on: SR leukemia
[36] = tested on: NCI-H226 lung
[37] = tested on: OVCAR-5 ovarian
[38] = tested on: HOP-62 NSCLC
[39] = tested on: OVCAR-4 ovarian
[40] = tested on: K-562 leukemia
[41] = tested on: SK-OV-3 ovarian
[42] = tested on: SK-MEL-2 melanoma
[43] = tested on: A498 renal
[44] = tested on: SN12C renal
[45] = tested on: HCC-2998 colon
[46] = tested on: NCI-H460 lung
[47] = tested on: M14 melanoma
[48] = tested on: PC-3 prostate
[49] = tested on: NCI-H522 lung
[50] = tested on: NCI-H23 lung
[51] = tested on: UACC-62 melanoma
[52] = tested on: DU-145 prostate
[53] = tested on: HCT-15 colon
[54] = tested on: EKVX NSCLC
[55] = tested on: MALME-3M melanoma
[56] = tested on: A549 NSCLC
[57] = tested on: MCF7 breast
[58] = tested on: HS 578T breast

Compound: COc1ccc(/C(C#N)=C/c2nc3c(N4CCOCC4)nc(Cl)nc3n2C)cc1OC
- GI50 [1]: 0.0204 µM
- TGI [1]: 1.34 µM

Compound: COc1ccc(CNCCN2C(=O)c3ccc4c5c(ccc(c35)C2=O)C(=O)N(CCNCc2ccc(OC)cc2)C4=O)cc1
- GI50 [1]: 0.191 µM
- TGI [1]: 0.482 µM

Compound: COc1ccc(C2CC(c3cccc(Nc4ccnc5cc(Cl)ccc45)c3)=NN2c2ccccc2)cc1 (stereo not given)
- GI50 [1]: 2.13 µM
- TGI [1]: 34.3 µM

Compound: Oc1ccc(Br)cc1CN1CCN(Cc2ccc(Cl)cc2)CC1
- GI50 [1]: 5.1 µM
- TGI [1]: 55.8 µM

Compound: CN1CCN(c2nc(C3=C(c4c[nH]c5ccccc45)C(=O)NC3=O)c3ccccc3n2)CC1
- GI50 [1]: 13.4 µM and 15 µM
- TGI [1]: 43.6 µM and 30.4 µM

Compound: CN1CCN(c2nc(NCCNc3ccnc4cc(Cl)ccc34)c3ccccc3n2)CC1
- GI50 [1]: 1.46 µM
- TGI [1]: 4.64 µM

Compound: CCCCCCCC(=O)SCC/C=C/[C@@H]1CC(=O)NCc2cccc(n2)CN(Cc2ccc(Cl)cc2)CC(=O)N[C@@H](C(C)C)C(=O)O1
- GI50 [1]: 13.8 µM
- TGI [1]: > 100 µM

Compound: CCCCCc1c(C)[nH]c(/C=C2\N=C(c3ccc[nH]3)C=C2Oc2ccc(OC)cc2)c1C
- GI50 [1]: 0.0655 µM and 0.0271 µM
- TGI [1]: 2.04 µM and 0.288 µM

Compound: O=C(CCCCCn1c2ccccc2c2c3c(c4c5ccccc5[nH]c4c21)C(=O)N(O)C3=O)N1CCOCC1
- GI50 [1]: 2.71 µM
- TGI [1]: 5.9 µM

Compound: CC(C)=CCNc1ncnc2c1ncn2C1OC(COP(=O)(O)O)C(O)C1O (stereo not given)
- GI50 [1]: 2.01 µM
- TGI [1]: 5.4 µM

Compound: O=C1/C(=C/c2ccc(F)cc2)CN(Cc2cn(CCNc3ccnc4cc(Cl)ccc34)nn2)C/C1=C\c1ccc(F)cc1
- GI50 [1]: 1.39 µM
- TGI [1]: 3.13 µM

Compound: COC(=O)c1ccc2c(c1)[n+](=O)c(C(C)=O)c(C(F)(F)F)n2[O-]
- GI50 [1]: 1.56 µM
- TGI [1]: 3.04 µM

Compound: COc1cc(OC)cc(-c2n[nH]nc2-c2ccc3c(c2)OCO3)c1
- GI50 [1]: 0.226 µM
- TGI [1]: 25.8 µM

Compound: Nc1ncnc2c1ncn2C1OC(CO)C(O)C1O (stereo not given)
- GI50 [1]: 2.14 µM
- TGI [1]: 5.41 µM

Compound: C=CC[n+]1c(/C=C2\Sc3ccccc3N2C)sc(-c2ccccc2)c1-c1ccccc1
- GI50 [1]: 0.251 µM
- TGI [1]: 0.911 µM

Compound: COc1cccc(-n2cnc3c(N/N=C/c4ccncc4)ncnc32)c1
- GI50 [1]: 6.4 µM
- TGI [1]: > 25 µM

Compound: O=c1cc(N2CCOCC2)oc2c(-c3ccccc3)cccc12
- GI50 [1]: 2.85 µM
- TGI [1]: 18 µM

Compound: CC(=O)c1c[nH]c2ccc(-c3ccnc(Nc4ccc(NC(=O)c5cccc(F)c5)c(CN5CCOCC5)c4)n3)cc12
- GI50 [1]: 0.172 µM
- TGI [1]: 0.582 µM

Compound: CC([C@H]1CCC2C3CCC4C(=O)C(NC=O)=CC[C@]4(C)C3CC[C@@]21C)N(C)C (stereo not given in full)
- GI50 [1]: 1.9 µM
- TGI [1]: 6.26 µM

Compound: O=C(c1ccc(O)cc1)C1[C@H](c2ccccc2Br)[C@@H](c2ccccc2)NC12C(=O)Nc1ccccc12 (stereo not given in full)
- GI50 [2]: 8.3 µM
- TGI [2]: 16.2 µM
- GI50 [3]: 7.29 µM
- TGI [3]: 15.5 µM
- GI50 [4]: 15.1 µM
- TGI [4]: 44.7 µM
- GI50 [5]: 5.14 µM
- TGI [5]: 12.8 µM
- GI50 [6]: 10.5 µM
- TGI [6]: 38.9 µM
- GI50 [7]: 8.73 µM
- TGI [7]: 16.9 µM
- GI50 [8]: 7.61 µM
- TGI [8]: 15 µM
- GI50 [9]: 9.08 µM
- TGI [9]: 17.2 µM
- GI50 [10]: 9.11 µM
- TGI [10]: 17.1 µM
- GI50 [11]: 7.87 µM
- TGI [11]: 19.9 µM
- GI50 [12]: 9.29 µM
- TGI [12]: 18.8 µM
- GI50 [13]: 8.93 µM
- TGI [13]: 18 µM
- GI50 [14]: 12.8 µM
- TGI [14]: 42.6 µM
- GI50 [15]: 9.47 µM
- TGI [15]: 18.1 µM
- GI50 [16]: 10.5 µM
- TGI [16]: 20 µM
- GI50 [17]: 9.19 µM
- TGI [17]: 17.8 µM
- GI50 [18]: 9.03 µM
- TGI [18]: 17.2 µM
- GI50 [19]: 9.27 µM
- TGI [19]: 17.7 µM
- GI50 [20]: 9.17 µM
- TGI [20]: 17.8 µM
- GI50 [21]: 7.83 µM
- TGI [21]: 18.8 µM
- GI50 [22]: 9.2 µM
- TGI [22]: 18.3 µM
- GI50 [23]: 10 µM
- TGI [23]: 22.9 µM
- GI50 [24]: 10.1 µM
- TGI [24]: 19.6 µM
- GI50 [25]: 9.1 µM
- TGI [25]: 17.2 µM
- GI50 [26]: 9.77 µM
- TGI [26]: 21 µM
- GI50 [27]: 7.99 µM
- TGI [27]: 25 µM
- GI50 [28]: 7.94 µM
- TGI [28]: 15.8 µM
- GI50 [29]: 7.23 µM
- TGI [29]: 15 µM
- GI50 [30]: 8.92 µM
- TGI [30]: 16.9 µM
- GI50 [31]: 7.83 µM
- TGI [31]: 16.4 µM
- GI50 [32]: 10.2 µM
- TGI [32]: 20.5 µM
- GI50 [33]: 7 µM
- TGI [33]: 15.1 µM
- GI50 [34]: 9.8 µM
- TGI [34]: 20.2 µM
- GI50 [35]: 9.59 µM
- TGI [35]: 24 µM
- GI50 [36]: 6.82 µM
- TGI [36]: 15 µM
- GI50 [37]: 9.47 µM
- TGI [37]: 18.2 µM
- GI50 [38]: 9.37 µM
- TGI [38]: 18.1 µM
- GI50 [39]: 8.72 µM
- TGI [39]: 19.1 µM
- GI50 [40]: 12.9 µM
- TGI [40]: 40.2 µM
- GI50 [1]: 7.08 µM
- TGI [1]: 16 µM
- GI50 [41]: 11.9 µM
- TGI [41]: 31.3 µM
- GI50 [42]: 8.33 µM
- TGI [42]: 16.2 µM
- GI50 [43]: 8.6 µM
- TGI [43]: 16.8 µM
- GI50 [44]: 8.7 µM
- TGI [44]: 16.6 µM
- GI50 [45]: 8.48 µM
- TGI [45]: 16.6 µM
- GI50 [46]: 9.17 µM
- TGI [46]: 17.8 µM
- GI50 [47]: 8.94 µM
- TGI [47]: 17.7 µM
- GI50 [48]: 8.03 µM
- TGI [48]: 21.3 µM
- GI50 [49]: 8.25 µM
- TGI [49]: 17.5 µM
- GI50 [50]: 9.23 µM
- TGI [50]: 18.2 µM
- GI50 [51]: 7.63 µM
- TGI [51]: 15.1 µM
- GI50 [52]: 10 µM
- TGI [52]: 19 µM
- GI50 [53]: 9.43 µM
- TGI [53]: 20 µM
- GI50 [54]: 9.34 µM
- TGI [54]: 23.2 µM
- GI50 [55]: 8.58 µM
- TGI [55]: 16.4 µM
- GI50 [56]: 8.07 µM
- TGI [56]: 16.9 µM
- GI50 [57]: 10.4 µM
- TGI [57]: 27.6 µM
- GI50 [58]: 9.49 µM
- TGI [58]: 27.2 µM

Compound: Cc1cc(C)c2nc(Nc3nc(C)c(C)c(=O)[nH]3)nc(C)c2c1
- GI50 [1]: 2.13 µM
- TGI [1]: 5.89 µM

Compound: O=C(NCCc1ccccc1)C(c1csc2ccccc12)N(C(=O)CCl)c1ccc(-c2cnco2)cc1 (stereo not given)
- GI50 [1]: 0.812 µM
- TGI [1]: 2.6 µM

Compound: COc1cc(C2C3=C(COC3=O)N(CCO)c3cc4c(cc32)OCCO4)cc(OC)c1O (stereo not given)
- GI50 [1]: 1.01 µM
- TGI [1]: > 11.6 µM

Compound: C=C1c2c(C)nn(-c3ccccc3)c2N(C)C23C[C@@H]1C1(C)c4c(C)nn(-c5ccccc5)c4N(C)C(C)(C[C@H]12)C3 (stereo not given in full)
- GI50 [1]: 2.9 µM
- TGI [1]: 27.9 µM

Compound: N#CC1=C(N)Oc2c(sc3c(F)cccc23)C1c1ccc(Cl)cc1 (stereo not given)
- GI50 [1]: 3.18 µM
- TGI [1]: 12.1 µM

Compound: N=C(N)c1ccc(-c2ccc(-c3ccco3)o2)cc1
- GI50 [1]: 1.39 µM
- TGI [1]: 3.79 µM

Compound: CCSc1sc(-c2ccc(C)cc2)nc1[P+](c1ccccc1)(c1ccccc1)c1ccccc1
- GI50 [1]: 0.219 µM
- TGI [1]: 0.731 µM

Compound: COc1cc(C2CC(c3ccc(C)cc3)=NN2C(C)=O)ccc1Oc1ccnc2cc(Cl)ccc12 (stereo not given)
- GI50 [1]: 20.7 µM
- TGI [1]: > 100 µM
